PubChem BioAssay AID1963443 (Molecular Pharmacology Branch, DTP, NCI, 2024)
pIC50: −log10 of the molar value. Values belong to the compound of their own block, whether it stands above or below them.

System: MDA-MB-231 complex spheroids, growth inhibition
Experiment: Anticancer human tumor MDA-MB-231 cell line growth inhibition [Asc];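 note: spheroids exposed to compounds for 7 days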
Conditions: for pIC50: curve of first compound; for viability, T/C: stronger effect = lower value
Summary of the method: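 Tumor cells were grown as complex spheroids with human endothelial cells (HUVEC) and human mesenchymal stem cells as stroma. Agents were tested alone and in combination, in half-log steps down from the clinical Cmax, or from 10 microM where Cmax was unknown.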

pIC50 (second compound 0.00316 µM): > 8.02
pIC50 (second compound 0.01 µM): > 8.02
pIC50 (second compound 0.0316 µM): > 8.02
pIC50 (second compound 0.1 µM): > 8.02
pIC50 (second compound 0.316 µM): 6.30
pIC50 (second compound 1 µM): 6.31
SMILES: Cc1nc(N2CCC3(CC2)COC(C)C3N)c(CO)nc1Sc1ccnc(N)c1Cl (configuration not stated) + CNC(C)C(=O)NC1CN(S(=O)(=O)c2cccc(S(=O)(=O)N3CCC4CCC(C(=O)NC(c5ccccc5)c5ccccc5)N4C(=O)C(NC(=O)C(C)NC)C3)c2)CCC2CCC(C(=O)NC(c3ccccc3)c3ccccc3)N2C1=O
viability, T/C (second compound 0.00316 µM, first compound 0.00949 µM): 6.2%
viability, T/C (second compound 0.00316 µM, first compound 0.03 µM): 3.59%
viability, T/C (second compound 0.00316 µM, first compound 0.0949 µM): 3.91%
viability, T/C (second compound 0.00316 µM, first compound 0.3 µM): 2.35%
viability, T/C (second compound 0.00316 µM, first compound 0.949 µM): 1.9%
viability, T/C (second compound 0.00316 µM, first compound 3 µM): 0.75%
viability, T/C (second compound 0.01 µM, first compound 0.00949 µM): 3.06%
viability, T/C (second compound 0.01 µM, first compound 0.03 µM): 1.64%
viability, T/C (second compound 0.01 µM, first compound 0.0949 µM): 2.31%
viability, T/C (second compound 0.01 µM, first compound 0.3 µM): 2.09%
viability, T/C (second compound 0.01 µM, first compound 0.949 µM): 1.16%
viability, T/C (second compound 0.01 µM, first compound 3 µM): 1.06%
viability, T/C (second compound 0.0316 µM, first compound 0.00949 µM): 1.57%
viability, T/C (second compound 0.0316 µM, first compound 0.03 µM): 2.27%
viability, T/C (second compound 0.0316 µM, first compound 0.0949 µM): 1.35%
viability, T/C (second compound 0.0316 µM, first compound 0.3 µM): 1%
viability, T/C (second compound 0.0316 µM, first compound 0.949 µM): 2.18%
viability, T/C (second compound 0.0316 µM, first compound 3 µM): 1.27%
viability, T/C (second compound 0.1 µM, first compound 0.00949 µM): 1.75%
viability, T/C (second compound 0.1 µM, first compound 0.03 µM): 1.36%
viability, T/C (second compound 0.1 µM, first compound 0.0949 µM): 0.97%
viability, T/C (second compound 0.1 µM, first compound 0.3 µM): 0.62%
viability, T/C (second compound 0.1 µM, first compound 0.949 µM): 1.23%
viability, T/C (second compound 0.1 µM, first compound 3 µM): 1.82%
viability, T/C (second compound 0.316 µM, first compound 0.00949 µM): 108%
viability, T/C (second compound 0.316 µM, first compound 0.03 µM): 101%
viability, T/C (second compound 0.316 µM, first compound 0.0949 µM): 108%
viability, T/C (second compound 0.316 µM, first compound 0.3 µM): 86.6%
viability, T/C (second compound 0.316 µM, first compound 0.949 µM): 2.83%
viability, T/C (second compound 0.316 µM, first compound 3 µM): 0.94%
viability, T/C (second compound 1 µM, first compound 0.00949 µM): 99.5%
viability, T/C (second compound 1 µM, first compound 0.03 µM): 113%
viability, T/C (second compound 1 µM, first compound 0.0949 µM): 99.9%
viability, T/C (second compound 1 µM, first compound 0.3 µM): 83.4%
viability, T/C (second compound 1 µM, first compound 0.949 µM): 3.91%
viability, T/C (second compound 1 µM, first compound 3 µM): 0.93%

pIC50 (second compound 0.03 µM): > 8.50
pIC50 (second compound 0.0949 µM): > 8.50
pIC50 (second compound 0.3 µM): > 8.50
pIC50 (second compound 0.949 µM): > 8.50
pIC50 (second compound 3 µM): > 8.50
SMILES: CNC(C)C(=O)NC1CN(S(=O)(=O)c2cccc(S(=O)(=O)N3CCC4CCC(C(=O)NC(c5ccccc5)c5ccccc5)N4C(=O)C(NC(=O)C(C)NC)C3)c2)CCC2CCC(C(=O)NC(c3ccccc3)c3ccccc3)N2C1=O (configuration not stated) + CCN1C(C(=O)NC23CCC(C(=O)O)(CC2)CC3)C(c2cccc(Cl)c2F)C2(C(=O)Nc3cc(Cl)ccc32)C12CCCCC2
viability, T/C (second compound 0.03 µM, first compound 0.00316 µM): 6.71%
viability, T/C (second compound 0.03 µM, first compound 0.01 µM): 1.67%
viability, T/C (second compound 0.03 µM, first compound 0.0316 µM): 1.57%
viability, T/C (second compound 0.03 µM, first compound 0.1 µM): 1.22%
viability, T/C (second compound 0.03 µM, first compound 0.316 µM): 1.14%
viability, T/C (second compound 0.03 µM, first compound 1 µM): 0.97%
viability, T/C (second compound 0.0949 µM, first compound 0.00316 µM): 5.03%
viability, T/C (second compound 0.0949 µM, first compound 0.01 µM): 1.98%
viability, T/C (second compound 0.0949 µM, first compound 0.0316 µM): 1.66%
viability, T/C (second compound 0.0949 µM, first compound 0.1 µM): 1.78%
viability, T/C (second compound 0.0949 µM, first compound 0.316 µM): 1.27%
viability, T/C (second compound 0.0949 µM, first compound 1 µM): 0.74%
viability, T/C (second compound 0.3 µM, first compound 0.00316 µM): 5.55%
viability, T/C (second compound 0.3 µM, first compound 0.01 µM): 3.61%
viability, T/C (second compound 0.3 µM, first compound 0.0316 µM): 2.08%
viability, T/C (second compound 0.3 µM, first compound 0.1 µM): 2.17%
viability, T/C (second compound 0.3 µM, first compound 0.316 µM): 0.84%
viability, T/C (second compound 0.3 µM, first compound 1 µM): 1.46%
viability, T/C (second compound 0.949 µM, first compound 0.00316 µM): 3.82%
viability, T/C (second compound 0.949 µM, first compound 0.01 µM): 2.39%
viability, T/C (second compound 0.949 µM, first compound 0.0316 µM): 2.37%
viability, T/C (second compound 0.949 µM, first compound 0.1 µM): 0.77%
viability, T/C (second compound 0.949 µM, first compound 0.316 µM): 0.84%
viability, T/C (second compound 0.949 µM, first compound 1 µM): 0.96%
viability, T/C (second compound 3 µM, first compound 0.00316 µM): 2.23%
viability, T/C (second compound 3 µM, first compound 0.01 µM): 1%
viability, T/C (second compound 3 µM, first compound 0.0316 µM): 1.14%
viability, T/C (second compound 3 µM, first compound 0.1 µM): 0.61%
viability, T/C (second compound 3 µM, first compound 0.316 µM): 0.68%
viability, T/C (second compound 3 µM, first compound 1 µM): 0.75%

pIC50 (second compound 0.1 µM): < 7.00
pIC50 (second compound 0.316 µM): < 7.00
pIC50 (second compound 1 µM): < 7.00
pIC50 (second compound 3.16 µM): < 7.00
pIC50 (second compound 10 µM): < 7.00
SMILES: Cn1ncnc1[C@H]1c2n[nH]c(=O)c3cc(F)cc(c23)N[C@@H]1c1ccc(F)cc1 + Cc1c(S(C)(=O)=O)c(-c2cc(F)cc(N3CCN(c4ccc(NS(=O)(=O)c5ccc(NC(CCN6CCC(C(=O)OCCCP(=O)(O)O)CC6)CSc6ccccc6)c(S(=O)(=O)C(F)(F)F)c5)cc4)CC3)c2)c(-c2ccc(Cl)cc2)n1C(C)C
viability, T/C (second compound 0.1 µM, first compound 0.000316 µM): 104%
viability, T/C (second compound 0.1 µM, first compound 0.001 µM): 95.4%
viability, T/C (second compound 0.1 µM, first compound 0.00316 µM): 107%
viability, T/C (second compound 0.1 µM, first compound 0.01 µM): 92.3%
viability, T/C (second compound 0.1 µM, first compound 0.0316 µM): 87.8%
viability, T/C (second compound 0.1 µM, first compound 0.1 µM): 87.2%
viability, T/C (second compound 0.316 µM, first compound 0.000316 µM): 103%
viability, T/C (second compound 0.316 µM, first compound 0.001 µM): 105%
viability, T/C (second compound 0.316 µM, first compound 0.00316 µM): 95.9%
viability, T/C (second compound 0.316 µM, first compound 0.01 µM): 90.6%
viability, T/C (second compound 0.316 µM, first compound 0.0316 µM): 80.7%
viability, T/C (second compound 0.316 µM, first compound 0.1 µM): 81%
viability, T/C (second compound 1 µM, first compound 0.000316 µM): 101%
viability, T/C (second compound 1 µM, first compound 0.001 µM): 107%
viability, T/C (second compound 1 µM, first compound 0.00316 µM): 105%
viability, T/C (second compound 1 µM, first compound 0.01 µM): 89.5%
viability, T/C (second compound 1 µM, first compound 0.0316 µM): 82.3%
viability, T/C (second compound 1 µM, first compound 0.1 µM): 75.7%
viability, T/C (second compound 3.16 µM, first compound 0.000316 µM): 101%
viability, T/C (second compound 3.16 µM, first compound 0.001 µM): 95.5%
viability, T/C (second compound 3.16 µM, first compound 0.00316 µM): 82.2%
viability, T/C (second compound 3.16 µM, first compound 0.01 µM): 83.7%
viability, T/C (second compound 3.16 µM, first compound 0.0316 µM): 68.7%
viability, T/C (second compound 3.16 µM, first compound 0.1 µM): 63.1%
viability, T/C (second compound 10 µM, first compound 0.000316 µM): 115%
viability, T/C (second compound 10 µM, first compound 0.001 µM): 108%
viability, T/C (second compound 10 µM, first compound 0.00316 µM): 98.5%
viability, T/C (second compound 10 µM, first compound 0.01 µM): 91.3%
viability, T/C (second compound 10 µM, first compound 0.0316 µM): 74.4%
viability, T/C (second compound 10 µM, first compound 0.1 µM): 65%
